Experimental data published in publication PMC10845951, “Characterization of a selective, iron-chelating antifungal compound that disrupts fungal metabolism and synergizes with fluconazole” (Microbiology Spectrum, 2024).

How the values were obtained:
[1] = system: HEK-293 cells; assay: CellTiter-Glo assay for human cells; type: cell-based; conditions: HEK293, HEK-293, 24 h
Procedure: (§1) HEK-293 and HS-5 cells were stored in liquid nitrogen, in freezing medium [50% Dulbecco’s Modified Eagle’s Medium (DMEM), 40% fetal bovine serum, and 10% DMSO] for long-term storage. For experimental use, the cells were thawed and then cultured using DMEM containing 10% […] and 1% penicillin/streptomycin.
(§2) The 1:1 serial dilutions of the compounds were performed in 96-well plates to obtain a final concentration range (three technical replicates each) equivalent to 0.781, 1.562, 3.125, 6.25, 12.5, 25, 50, and 100 µM. […] The plates were placed inside plastic bags to prevent evaporation and incubated at 37°C, 5% CO2 for 24 h. One hundred microliters of CellTiter-Glo 2.0 (Promega, G9243) was added to each well and then measured for luminescence using a Synergy 2 Gen 5 plate reader from BioTek.

[2] = system: HS-5 cells; assay: CellTiter-Glo assay for human cells; type: cell-based; conditions: HS5, HS-5, 24 h
Procedure: as §1, §2

[3] = system: C. glabrata WT; assay: Cell proliferation with metal supplementation; type: cell-based, Candida glabrata
Procedure: One-millimolar stocks of metal solutions (CaCl2, CuCl2, FeCl2, FeCl3, MgCl2, MnCl2, and ZnCl2) were prepared in mQH2O and autoclaved. […] Fifty microliters of either mQH2O or metal solution were added to each well, including 50 µL of refreshed C. glabrata WT with an adjusted OD600 of 0.15. The 96-well plates were measured at OD600 and incubated in plastic bags to prevent evaporation for 24 h, after which the final OD600 was measured.

[4] = system: G. mellonella larvae; assay: Toxicity of compound to Galleria mellonella larvae; type: in vivo; conditions: high concentration (30 µM)
Procedure: Galleria mellonella was obtained from R.J. Mous Livebait (The Netherlands). The larvae were selected by weight (0.2–0.3 grams) and by the absence of dark spots on the cuticle. The larvae were maintained at room temperature, and the day before the experiment, they were transferred to the temperature at which the experiment was going to be performed (30°C). The number of dead caterpillars was scored every day. […] G. mellonella were infected with either C. glabrata 2001HT or FL-256; C. glabrata cells were grown in liquid media (Oxoid) overnight at 30°C with moderate shaking (150 rpm). Groups of 20 larvae per strain were infected in each experiment. The pro-leg area was cleaned with 70% ethanol using a swab. The larvae were inoculated with 10 µL of C. glabrata suspension at 2.5 × 10^6 cells/mL in PBS containing 50 µg/mL of ampicillin by injection, using a Hamilton syringe with 26-gauge needle in the last left pro-leg.

[5] = system: C. albicans WT; conditions: Candida albicans, 24 h, read-out: C. albicans WT Inhibition (%)

c1ccc(-c2cccc(-c3ccccn3)n2)nc1 [2,2′:6′,2′′-terpyridine]
EC50 [1]: 37.1 ± 6.94 µM
EC50 [2]: 28.7 ± 8.32 µM
change of EC50 on metal addition ([3]; +5 µM Cu^2+ (CuCl2), 24 h): significantly increased
change of EC50 on metal addition ([3]; +5 µM FeCl2, 24 h): significantly increased
change of EC50 on metal addition ([3]; +5 µM Zn^2+ (ZnCl2), 24 h): significantly increased
toxicity to the larvae [4]: well tolerated
inhibition at 1 µM [5]: -6.82%
inhibition at 2 µM [5]: -0.43%
inhibition at 3 µM [5]: 1.52%
inhibition at 4 µM [5]: 7.25%
inhibition at 5 µM [5]: 9.76%
inhibition at 10 µM [5]: 79.1%
